The results in this text go back to patent US20200317660A1, “Quinazolinone Compound and Application Thereof” (LUOXIN PHARMACEUTICAL (SHANGHAI) CO., LTD., priority 2017, published 2020).

The target of one data set is T1, PI3Kβ (Homo sapiens, UniProt P42338).
T1 construct: purchased Promega V1751
Description: In vitro test of enzyme activity (ADP-Glo lipokinase), PI3K beta. In kind it is biochemical. To be noted: 40 μM ATP, 50 μM PIP2:3PS, 120 min.

Data set [1] in a line: In vivo DMPK study in mice after a single administration. The arrangement: species or system female Balb/c mice. To be noted: female, Balb/c, mouse, plasma, intravenous 1 mg/kg. Here is the method: Experimental objective: female Balb/c mice were used as the test animals, and the blood concentration of the compound was determined and the pharmacokinetic behavior was evaluated after a single administration.
Experimental operation: 12 healthy adult female Balb/c mice were selected, 6 for intravenous injection group and 6 for oral administration group. The compound to be tested was mixed with an appropriate amount of intravenous injection group vehicle (10% HP-betaCD: 10% solutol=1:1, pH=8), vortex-mixed and sonicated to prepare a 1.0 mg/mL clear solution, followed by filtration for subsequent use; the vehicle in the oral group was 0.5% MC/0.2% Tw80. After the test compound and the vehicle were mixed, it was vortex-mixed and sonicated to prepare a 1.0 mg/mL homogeneous suspension for subsequent use. After an intravenous administration at a dose of 1 mg/kg or an oral administration at the dose of 2 mg/kg and 10 mg/kg, whole blood of the mice was collected for a certain period of time to prepare plasma. The drug concentration was analyzed by LC-MS/MS method, and Phoenix WinNonlin software was used (Pharsight, USA) to calculate the pharmacokinetic parameters.
Cmax: the highest concentration of the drug in the body; F %: oral bioavailability; Oral DNAUC: area under the dose normalization curve; Vd: apparent volume of distribution; Cl: clearance rate; T1/2: half-life.

The test system of data set [2] is human ovarian cancer SK-OV-3 cells. Description: Subcutaneous xenograft tumor model of human ovarian cancer SK-OV-3 cells. It is filed as in vivo, BALB/c nude mouse. The note with it: SK-OV-3 xenograft, 30 mpk. Here is the method: (2) BALB/c nude mouse subcutaneous xenograft tumor model of human ovarian cancer SK-OV-3 cells
Human ovarian cancer SK-OV-3 cells (ECACC-91091004) were subjected to in vitro monolayer culture, and the culture conditions were: McCoy's 5a medium (Gibco, 16600-082) with 10% fetal bovine serum and 100 U/mL penicillin and 100 µg/mL streptomycin, 37° C. and 5% CO2 incubator. The cells were passaged by digestion with trypsin-EDTA twice a week. When the cells saturation reached 80%-90%, the cells were collected, counted, and inoculated.
0.2 mL of 10×10^6 SK-OV-3 cells were subcutaneously inoculated into the right back of each nude mouse (PBS:Matrigel=1:1). When the average tumor volume reached 200 mm^3, 48 tumor-bearing mice were divided into 8 groups by stratified random method with 6 mice in each group, which were administered on the day of grouping.
Preparation of Test Substance
Vehicle group: 2.0 g of methyl cellulose was weighed in a 500 mL glass bottle, followed by addition of 399.2 mL of ddH2O and 0.8 mL of Tween 80. […]
The experimental index was to evaluate whether the tumor growth was inhibited, delayed or cured. The diameter of the tumor was measured with a vernier caliper twice a week. […]
The antitumor efficacy of the compound was evaluated by TGI (%) or relative tumor proliferation rate T/C (%). […]
Background: Xenograft models place foreign cells or tissue in a host animal.

T1 sequence (P42338 whole entry): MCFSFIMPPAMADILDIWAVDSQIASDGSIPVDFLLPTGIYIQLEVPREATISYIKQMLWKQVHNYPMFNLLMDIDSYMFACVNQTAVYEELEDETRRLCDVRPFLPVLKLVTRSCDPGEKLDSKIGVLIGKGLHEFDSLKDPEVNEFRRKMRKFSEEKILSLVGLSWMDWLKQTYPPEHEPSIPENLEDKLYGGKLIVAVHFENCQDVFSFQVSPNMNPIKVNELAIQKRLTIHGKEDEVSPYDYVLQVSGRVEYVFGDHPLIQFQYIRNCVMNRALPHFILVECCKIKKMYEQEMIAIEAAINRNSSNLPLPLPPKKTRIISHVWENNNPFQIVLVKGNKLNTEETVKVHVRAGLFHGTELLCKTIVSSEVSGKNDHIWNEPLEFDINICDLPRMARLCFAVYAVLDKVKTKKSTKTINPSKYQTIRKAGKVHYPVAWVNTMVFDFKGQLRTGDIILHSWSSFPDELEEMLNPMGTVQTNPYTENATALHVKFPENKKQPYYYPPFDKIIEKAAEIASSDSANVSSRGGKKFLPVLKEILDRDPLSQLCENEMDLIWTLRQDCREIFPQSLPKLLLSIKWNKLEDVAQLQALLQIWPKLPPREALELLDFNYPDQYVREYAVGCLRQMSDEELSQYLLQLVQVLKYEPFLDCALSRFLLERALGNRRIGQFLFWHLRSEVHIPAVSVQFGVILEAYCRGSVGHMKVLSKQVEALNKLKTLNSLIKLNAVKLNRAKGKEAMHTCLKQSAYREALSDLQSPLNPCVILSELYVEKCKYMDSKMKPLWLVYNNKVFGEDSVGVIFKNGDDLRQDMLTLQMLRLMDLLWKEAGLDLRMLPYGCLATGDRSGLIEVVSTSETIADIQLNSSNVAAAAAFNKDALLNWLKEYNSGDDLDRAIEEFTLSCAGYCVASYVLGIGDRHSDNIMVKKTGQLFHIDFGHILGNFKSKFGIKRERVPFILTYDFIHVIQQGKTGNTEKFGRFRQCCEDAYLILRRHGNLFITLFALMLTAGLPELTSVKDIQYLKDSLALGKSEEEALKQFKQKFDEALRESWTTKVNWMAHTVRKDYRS
T1 sequence (P27986 whole entry partner): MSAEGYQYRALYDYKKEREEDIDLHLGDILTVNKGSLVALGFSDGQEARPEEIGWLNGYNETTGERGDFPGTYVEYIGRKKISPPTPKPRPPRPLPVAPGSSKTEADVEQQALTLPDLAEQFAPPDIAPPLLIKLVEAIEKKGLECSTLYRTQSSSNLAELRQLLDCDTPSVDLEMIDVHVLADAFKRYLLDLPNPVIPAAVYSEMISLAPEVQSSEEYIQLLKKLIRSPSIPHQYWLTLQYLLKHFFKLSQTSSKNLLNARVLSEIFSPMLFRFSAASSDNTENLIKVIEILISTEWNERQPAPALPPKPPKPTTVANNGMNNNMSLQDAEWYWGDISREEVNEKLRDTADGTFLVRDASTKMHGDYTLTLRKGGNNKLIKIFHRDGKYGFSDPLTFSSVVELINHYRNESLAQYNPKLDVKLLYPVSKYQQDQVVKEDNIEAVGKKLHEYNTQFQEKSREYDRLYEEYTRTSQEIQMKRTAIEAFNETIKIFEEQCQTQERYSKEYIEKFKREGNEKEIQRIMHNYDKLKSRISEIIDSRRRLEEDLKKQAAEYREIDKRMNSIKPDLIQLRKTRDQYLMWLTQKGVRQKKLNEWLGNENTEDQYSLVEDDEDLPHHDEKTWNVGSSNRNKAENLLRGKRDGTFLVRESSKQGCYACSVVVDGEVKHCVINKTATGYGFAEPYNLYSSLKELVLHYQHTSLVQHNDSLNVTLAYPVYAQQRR

As for `CNC(=O)CCCn1cnc2ccc(-c3cnc(OC)c(NS(=O)(=O)c4ccc(F)cc4Cl)c3)cc2c1=O` [WX198], it took 33 nM to reach half-maximal inhibition against PI3Kβ (IC50). Further, the clearance (commonly a measure of how efficiently the substance is removed, as volume per time) in data set [1] (read-out: Cl (clearance rate)) turned out to be 4.16 mL/min/kg. Also, the half-life in data set [1] (read-out: Intravenous injection T1/2 (converted)) is 53.4 min. For the same compound, the Vd in data set [1] (read-out: Vd (apparent volume of distribution)) turned out to be 0.257 L/kg. The same compound came in with a TGI % in data set [2] of 62.6%.
